From US4277477A, “Method of using 1,2-benzisothiazoles” (BASF Aktiengesellschaft, priority 1977, dated 1981)
Structures can show the parent of a compound that is named as a salt.

Assays:
in vivo = format: in vivo, rats (Sprague Dawley); conditions: rat, in vivo; rats, oral; read-out: Maximum effect, Dose (maximum nontoxic dose)
Procedure: (§1) The anti-arrhythmic activity of the compounds is determined by orally administering these to rats (Sprague Dawley, weight: 180-240 g) 45 minutes before the start of narcosis (100 mg/kg of thiobutabarbital, administered intraperitoneally).
(§2) The arrhythmogenous substance used was aconitine, administered by intravenous infusion (at the rate of 0.005 mg/kg. minute) 60 minutes after administration of the benzisothiazole derivative.
(§3) for a quantitative evaluation of the linear relation between the logarithm of the dose (mg/kg) of the test substances and the relative increase in the duration of infusion of aconitine (Δ%), the dose which increases the duration of infusion by 50% (ED 50%) was determined.

[1] = system: Aconitineinduced arrhythmia in rats; assay: in vivo; format: in vivo, rats (Sprague Dawley); conditions: oral
Procedure: as §1, §2, §3

female Swiss mice = conditions: LD 50 mice i.p. / ED 50% rats oral
Procedure: The acute toxicity was determined on groups of 10 or 20 female Swiss mice weighing 20-26 g, using intraperitoneal administration.

Row | Structure (SMILES) | MTD (in vivo) [mg/kg] | antiarrhythmic activity, times greater than that of procainamide [1] | therapeutic range (LD 50/ED 50%), times greater than for procainamide (female Swiss mice) [times] | Antiarrhythmic effect, R.E. (relative effect; procainamide = 1.00) ([1]; relative to procainamide)
1 | CCN(CC)CCNC(=O)c1ccc(N)cc1 [Procainamide, procainamide, reference compound] | 681 | – | – | –
2 | c1ccc2c(-c3ccc(C4=NCCCN4)cc3)nsc2c1 [Example 2, 3-[4'-(Tetrahydropyrimidin-2"-yl)-phenyl]-1,2-benzisothiazole hydrochloride] | 215 | about 5 times | 4 | –
3 | CC1CN=C(c2ccc(-c3nsc4ccccc34)cc2)N1 (centres unmarked) [Example 3, 3-[4'-(Methylimidazolin-2"-yl)-phenyl]-1,2-benzisothiazole hydrochloride] | 215 | about 5 times | 2.8 | 4.80
